Reference: the supplement of paper PMC10307832

Tests used:
Experiment in all cases: relative viability (nuclei count vs DMSO), 5 days (fraction); higher = more cells survive
TPCA-1 + Decitabine = compound: C1=CC(=CC=C1C2=CC(=C(S2)NC(=O)N)C(=O)N)F [TPCA-1] + Nc1ncn([C@H]2C[C@H](O)[C@@H](CO)O2)c(=O)n1 [Decitabine] (partner 2 µM)
Procedure, shortened: (§1)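 Medians of duplicate plates are given as relative viability. That measure is the nuclei count in treated wells divided by the count in vehicle wells. Counts were taken on 4× images of lung cancer cell lines in 1536-well plates, 5 days after pin-tool dosing the day after seeding with one drug alone or a fixed anchor-drug dose plus five library-drug doses (not always all listed) in √10 steps.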

[1] = compound: C1/C(=C\C2=CC=CS2)/C(=O)/C(=C/C3=CC=CS3)/C1 + CCNC(=O)c1noc(-c2cc(C(C)C)c(O)cc2O)c1-c1ccc(CN2CCOCC2)cc1 [Luminespib] (partner 0.01 µM)
Procedure, shortened: as §1

TPCA-1 + Vorinostat = compound: C1=CC(=CC=C1C2=CC(=C(S2)NC(=O)N)C(=O)N)F [TPCA-1] + O=C(CCCCCCC(=O)Nc1ccccc1)NO [Vorinostat] (partner 1 µM)
Procedure, shortened: as §1

[2] = compound: C[C@]12O[C@H](C[C@]1(O)CO)n1c3ccccc3c3c4c(c5c6ccccc6n2c5c31)CNC4=O [Lestaurtinib] + CC(C)C[C@H](NC(=O)[C@H](Cc1ccccc1)NC(=O)c1cnccn1)B(O)O [Bortezomib] (partner 0.002 µM)
Procedure, shortened: as §1

| Cell Line | relative viability (TPCA-1 + Decitabine; first compound 0.04 µM) | relative viability (TPCA-1 + Decitabine; first compound 0.1265 µM) | relative viability (TPCA-1 + Decitabine; first compound 0.4 µM) | relative viability (TPCA-1 + Decitabine; first compound 1.265 µM) | relative viability (TPCA-1 + Decitabine; first compound 4 µM) | relative viability ([1]; first compound 0.2 µM) | relative viability ([1]; first compound 0.6325 µM) | relative viability ([1]; first compound 2 µM) | relative viability ([1]; first compound 6.325 µM) | relative viability ([1]; first compound 20 µM) | relative viability (TPCA-1 + Vorinostat; first compound 0.04 µM) | relative viability (TPCA-1 + Vorinostat; first compound 0.1265 µM) | relative viability (TPCA-1 + Vorinostat; first compound 0.4 µM) | relative viability (TPCA-1 + Vorinostat; first compound 1.265 µM) | relative viability (TPCA-1 + Vorinostat; first compound 4 µM) | relative viability ([2]; first compound 0.005 µM) | relative viability ([2]; first compound 0.01581 µM) | relative viability ([2]; first compound 0.05 µM) | relative viability ([2]; first compound 0.1581 µM) | relative viability ([2]; first compound 0.5 µM) |
| --- | --- | --- | --- | --- | --- | --- | --- | --- | --- | --- | --- | --- | --- | --- | --- | --- | --- | --- | --- | --- |
| HARA | 0.576 | 0.54 | 0.844 | 0.462 | 0.492 | 0.785 | 0.923 | 1.09 | 0.853 | 0.791 | 0.55 | 0.51 | 0.528 | 0.433 | 0.361 | 1.21 | 1.33 | 1 | 0.671 | 0.179 |
| HCC-78 | 0.788 | 0.698 | 0.565 | 0.711 | 0.529 | – | – | – | – | – | 0.445 | 0.422 | 0.42 | 0.469 | 0.28 | 0.47 | 0.488 | 0.425 | 0.283 | 0.29 |
| HCC-366 | – | 0.285 | 0.361 | 0.271 | 0.322 | – | – | – | – | – | – | 0.288 | 0.359 | 0.285 | 0.0534 | 1.13 | 1.11 | 0.565 | 1.05 | 0.43 |
| IA-LM | – | – | – | – | – | – | – | – | – | – | 1.02 | 0.942 | 0.999 | – | 0.699 | 1.08 | 1.18 | 1.08 | 0.943 | 0.339 |
| LK-2 | 0.347 | 0.21 | 0.331 | 0.27 | 0.175 | 0.166 | 0.187 | 0.177 | 0.202 | 0.212 | 0.343 | 0.161 | 0.287 | 0.267 | 0.237 | – | – | – | – | – |
| NCI-H358 | 0.224 | 0.215 | 0.217 | 0.214 | 0.153 | 0.324 | 0.453 | 0.337 | – | 0.341 | 0.695 | 0.576 | 0.634 | 0.409 | 0.168 | – | – | – | – | – |
| NCI-H522 | 0.658 | 0.674 | 0.662 | 0.646 | 0.58 | 1.13 | 0.991 | 1.32 | 1.12 | 1.07 | 1.03 | 0.819 | 1 | 0.842 | 0.987 | – | – | – | – | – |
| NCI-H1299 | – | – | – | – | – | – | – | – | – | – | – | – | – | – | – | 1.04 | 0.982 | 1.03 | 0.843 | 0.751 |
| NCI-H1395 | 0.791 | 0.694 | 0.753 | 0.797 | 0.695 | 0.743 | 0.701 | 0.704 | 0.738 | 0.663 | 0.637 | 0.645 | 0.856 | 0.604 | 0.55 | – | – | – | – | – |
| NCI-H1563 | – | – | – | – | – | 0.567 | 0.511 | 0.552 | 0.534 | 0.492 | – | – | – | – | – | 0.938 | 0.836 | 0.741 | 0.957 | 0.705 |
| NCI-H1623 | – | – | – | – | – | 0.672 | 0.601 | 0.528 | 0.372 | 0.511 | – | – | – | – | – | – | – | – | – | – |
| NCI-H1648 | 0.605 | 0.578 | 0.495 | 0.519 | 0.569 | – | – | – | – | – | 0.4 | 0.486 | 0.528 | 0.704 | 0.631 | – | – | – | – | – |
| NCI-H1703 | – | – | – | – | – | – | – | – | – | – | – | – | – | – | – | 0.31 | 0.359 | 0.308 | 0.137 | 0.117 |
| NCI-H1792 | 0.674 | 0.465 | 0.551 | 0.474 | 0.307 | 0.509 | 0.285 | 0.468 | 0.583 | 0.388 | – | – | – | – | – | 1.29 | 1.08 | 0.5 | 1.07 | 0.437 |
| NCI-H1793 | 0.495 | 0.429 | 0.492 | 0.451 | 0.384 | 0.229 | 0.178 | 0.189 | 0.153 | 0.179 | 0.619 | 0.61 | 0.967 | 0.674 | 0.236 | – | – | – | – | – |
| NCI-H1944 | 0.526 | 0.446 | 0.477 | 0.475 | 0.383 | 0.762 | 0.731 | 0.674 | 0.695 | 0.626 | 0.648 | 0.709 | 0.675 | 0.512 | 0.521 | – | – | – | – | – |
| NCI-H2170 | 0.493 | 0.433 | 0.444 | 0.453 | 0.385 | 0.98 | 0.582 | 0.788 | 0.632 | 0.719 | 0.965 | 0.881 | 0.779 | 0.724 | 0.628 | – | – | – | – | – |
| NCI-H2228 | – | – | – | – | – | 0.158 | 0.167 | 0.179 | 0.133 | 0.134 | 0.733 | 0.813 | 0.933 | 0.501 | 0.567 | 0.994 | 0.805 | 0.629 | 0.476 | 0.185 |
| NCI-H2342 | 0.71 | 0.653 | 0.766 | 0.712 | 0.883 | 0.761 | 0.654 | 0.767 | 0.615 | 0.8 | 0.77 | 0.699 | 0.681 | 0.683 | 0.663 | – | – | – | – | – |
| SK-MES-1 | 0.39 | 0.348 | 0.37 | 0.342 | 0.321 | 0.868 | 0.646 | 0.839 | 0.545 | 0.773 | 1.14 | 1.01 | 0.966 | 1.02 | 0.438 | – | – | – | – | – |
| SW 900 | – | – | 0.407 | 0.421 | 0.391 | 0.16 | 0.173 | 0.181 | 0.175 | 0.156 | – | – | 0.515 | 0.422 | 0.45 | – | – | – | – | – |
